Measured values reported in patent US20250215030A1, “STAT MODULATORS AND USES THEREOF” (Recludix Pharma, Inc., priority 2022, published 2025).

Assays:
[1] = biological target: T1, Recombinant STAT6 protein (STAT6(W123-T658)) (Homo sapiens, UniProt P42226); assay: STAT6 Fluorescence Polarization (FP) Assay; assay type: binding; conditions: STAT6(W123-T658) 250 nM, probe 5-FAM-ApYKPFQDLI-NH2 2 nM, 45-minute incubation
T1 construct: STAT6(W123-T658)
T1 sequence (P42226 123-658): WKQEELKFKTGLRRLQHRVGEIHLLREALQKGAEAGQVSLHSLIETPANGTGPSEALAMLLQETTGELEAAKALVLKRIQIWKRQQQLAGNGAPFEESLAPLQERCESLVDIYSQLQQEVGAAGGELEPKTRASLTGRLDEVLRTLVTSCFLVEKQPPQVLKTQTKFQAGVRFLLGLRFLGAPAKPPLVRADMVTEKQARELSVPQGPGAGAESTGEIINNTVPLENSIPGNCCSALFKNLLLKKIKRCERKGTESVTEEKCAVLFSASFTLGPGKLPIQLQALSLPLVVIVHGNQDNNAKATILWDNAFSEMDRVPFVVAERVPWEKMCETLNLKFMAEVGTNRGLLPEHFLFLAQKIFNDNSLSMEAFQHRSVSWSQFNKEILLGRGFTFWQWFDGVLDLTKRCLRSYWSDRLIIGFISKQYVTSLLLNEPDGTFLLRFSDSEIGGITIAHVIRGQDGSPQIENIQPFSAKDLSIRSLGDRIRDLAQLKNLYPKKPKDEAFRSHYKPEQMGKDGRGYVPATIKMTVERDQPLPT
How it was run: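 STAT6 (W123-T658) at 250 nM mixed with 2 nM 5-FAM-ApYKPFQDLI-NH2 probe in HEPES pH 7.4 buffer with DTT and Tween 20, 1% DMSO final. Polarization read after 45 min at room temperature; IC50 by nonlinear regression of mP versus log concentration, reported in bins A–D.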

[2] = biological target: T2, Recombinant STAT3 protein (STAT3(G127-I722)) (Homo sapiens, UniProt P40763); assay: STAT3 Fluorescence Polarization (FP) Assay; assay type: binding; conditions: STAT3(G127-I722) 25 nM, probe 5-FAM-GpYLPQTV-NH2 2 nM, 45-minute incubation
T2 construct: STAT3(G127-I722)
T2 sequence (P40763 127-722, species assumed): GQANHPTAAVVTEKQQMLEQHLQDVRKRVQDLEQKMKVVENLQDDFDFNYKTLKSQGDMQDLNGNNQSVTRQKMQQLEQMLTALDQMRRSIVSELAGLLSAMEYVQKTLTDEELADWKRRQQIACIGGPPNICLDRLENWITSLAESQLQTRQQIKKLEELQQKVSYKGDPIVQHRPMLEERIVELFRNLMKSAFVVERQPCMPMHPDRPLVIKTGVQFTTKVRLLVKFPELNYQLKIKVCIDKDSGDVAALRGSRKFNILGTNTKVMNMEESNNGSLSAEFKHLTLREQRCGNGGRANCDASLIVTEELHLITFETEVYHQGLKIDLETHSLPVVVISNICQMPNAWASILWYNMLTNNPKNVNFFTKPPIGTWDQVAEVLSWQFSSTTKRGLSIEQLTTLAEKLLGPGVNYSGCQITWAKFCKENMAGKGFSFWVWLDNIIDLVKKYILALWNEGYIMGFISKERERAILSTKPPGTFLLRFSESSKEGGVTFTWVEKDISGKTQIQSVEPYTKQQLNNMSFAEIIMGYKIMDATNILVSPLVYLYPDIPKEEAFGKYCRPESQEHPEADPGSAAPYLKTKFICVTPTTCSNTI
How it was run: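 STAT3(G127-I722) at 25 nM and 5-FAM-GpYLPQTV-NH2 probe at 2 nM in HEPES pH 7.4 buffer with NaCl, EDTA, Tween 20, DTT; 1% DMSO. FP read after 45 min at room temperature; IC50 by nonlinear regression of mP vs log concentration, binned A ≤100 nM to D >10 μM.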

Compound | IC50 [1] [µM] | IC50 [2] [µM]
Cc1cc(C2CN(C(=O)[C@@H]3CC[C@@H]4C[C@H]5C[C@H]5C[C@H](NC(=O)c5cc6cc(C(F)P(=O)(O)O)ccc6s5)C(=O)N43)C2)no1 (stereo partly drawn) [Example 337, (fluoro(2-(((3S,6S,7aS,8aR,9aR)-3-(3-(5-methylisoxazol-3-yl)azetidine-1-carbonyl)-5-oxodecahydro-1H-cyclopropa[d]pyrrolo[1,2-a]azocin-6-yl)carbamoyl)benzo[b]thiophen-5-yl)methyl)phosphonic acid] | 3 to 30 | < 0.1
O=C(N[C@H]1C[C@@H]2C[C@@H]2C[C@H]2CC[C@@H](C(=O)N[C@H]3CN(c4ncc[nH]4)C[C@@H]3F)N2C1=O)c1cc2cc(C(F)P(=O)(O)O)ccc2s1 (stereo partly drawn) [Example 339, (fluoro(2-(((3S,6S,7aS,8aR,9aR)-3-(((3S,4S)-4-fluoro-1-(1H-imidazol-2-yl)pyrrolidin-3-yl)carbamoyl)-5-oxodecahydro-1H-cyclopropa[d]pyrrolo[1,2-a]azocin-6-yl)carbamoyl)benzo[b]thiophen-5-yl)methyl)phosphonic acid] | 0.3 to 3 | < 0.1
NC(=O)N1C[C@H](NC(=O)[C@@H]2CC[C@@H]3C[C@H]4C[C@H]4C[C@H](NC(=O)c4cc5cc(C(F)P(=O)(O)O)ccc5s4)C(=O)N32)C(F)(F)C1 (stereo partly drawn) [Example 340, ((2-(((3S,6S,7aS,8aR,9aR)-3-(((S)-1-carbamoyl-4,4-difluoropyrrolidin-3-yl)carbamoyl)-5-oxodecahydro-1H-cyclopropa[d]pyrrolo[1,2-a]azocin-6-yl)carbamoyl)benzo[b]thiophen-5-yl)fluoromethyl)phosphonic acid] | 3 to 30 | < 0.1
CS(=N)(=O)CC1CN(C(=O)[C@@H]2CC[C@@H]3C[C@H]4C[C@H]4C[C@H](NC(=O)c4cc5cc(C(F)P(=O)(O)O)ccc5s4)C(=O)N32)C1 (stereo partly drawn) [Example 341, (fluoro(2-(((3S,6S,7aS,8aR,9aR)-3-(3-((S-methylsulfonimidoyl)methyl)azetidine-1-carbonyl)-5-oxodecahydro-1H-cyclopropa[d]pyrrolo[1,2-a]azocin-6-yl)carbamoyl)benzo[b]thiophen-5-yl)methyl)phosphonic acid] | 3 to 30 | < 0.1
O=C(N[C@H]1C[C@@H]2C[C@@H]2C[C@H]2CC[C@@H](C(=O)N3CC(Oc4ncccn4)C3)N2C1=O)c1cc2cc(CP(=O)(O)O)ccc2s1 [Example 342, ((2-(((3S,6S,7aS,8aR,9aR)-5-oxo-3-(3-(pyrimidin-2-yloxy)azetidine-1-carbonyl)decahydro-1H-cyclopropa[d]pyrrolo[1,2-a]azocin-6-yl)carbamoyl)benzo[b]thiophen-5-yl)methyl)phosphonic acid] | > 30 | 1 to 10
CCc1ccncc1C1CN(C(=O)[C@@H]2CC[C@@H]3C[C@@H]4C[C@@H]4C[C@H](NC(=O)c4cc5cc(CP(=O)(O)O)ccc5s4)C(=O)N32)C1 [Example 343, ((2-(((3S,6S,7aR,8aS,9aR)-3-(3-(4-ethylpyridin-3-yl)azetidine-1-carbonyl)-5-oxodecahydro-1H-cyclopropa[d]pyrrolo[1,2-a]azocin-6-yl)carbamoyl)benzo[b]thiophen-5-yl)methyl)phosphonic acid] | > 30 | < 0.1
O=C(N[C@H]1C[C@@H]2C[C@@H]2C[C@H]2CC[C@@H](C(=O)N[C@H]3CN(c4nc[nH]n4)C[C@@H]3F)N2C1=O)c1cc2cc(C(F)P(=O)(O)O)ccc2s1 (stereo partly drawn) [Example 347, (fluoro(2-(((3S,6S,7aS,8aR,9aR)-3-(((3S,4S)-4-fluoro-1-(1H-1,2,4-triazol-3-yl)pyrrolidin-3-yl)carbamoyl)-5-oxodecahydro-1H-cyclopropa[d]pyrrolo[1,2-a]azocin-6-yl)carbamoyl)benzo[b]thiophen-5-yl)methyl)phosphonic acid] | 3 to 30 | 0.1 to 1
Cc1cn(C)c(N2C[C@H](NC(=O)[C@@H]3CC[C@@H]4C[C@H]5C[C@H]5C[C@H](NC(=O)c5cc6cc(C(F)P(=O)(O)O)ccc6s5)C(=O)N43)[C@@H](F)C2)n1 (stereo partly drawn) [Example 348, ((2-(((3S,6S,7aS,8aR,9aR)-3-(((3S,4S)-1-(1,4-dimethyl-1H-imidazol-2-yl)-4-fluoropyrrolidin-3-yl)carbamoyl)-5-oxodecahydro-1H-cyclopropa[d]pyrrolo[1,2-a]azocin-6-yl)carbamoyl)benzo[b]thiophen-5-yl)fluoromethyl)phosphonic acid] | 3 to 30 | < 0.1

Other lines, results leading:

IC50 [1] [µM] | IC50 [2] [µM] | Compound
3 to 30 | 0.1 to 1 | O=C(N[C@H]1C[C@@H]2C[C@@H]2C[C@H]2CC[C@@H](C(=O)N3CC(Cc4cccc(F)c4)C3)N2C1=O)c1cc2cc(CP(=O)(O)O)ccc2s1 [Example 349, ((2-(((3S,6S,7aS,8aR,9aR)-3-(3-(3-fluorobenzyl)azetidine-1-carbonyl)-5-oxodecahydro-1H-cyclopropa[d]pyrrolo[1,2-a]azocin-6-yl)carbamoyl)benzo[b]thiophen-5-yl)methyl)phosphonic acid]
3 to 30 | 0.1 to 1 | O=C(N[C@H]1C[C@@H]2C[C@@H]2C[C@H]2CC[C@@H](C(=O)N3CC(Oc4cccnc4)C3)N2C1=O)c1cc2cc(CP(=O)(O)O)ccc2s1 [Example 350, ((2-(((3S,6S,7aS,8aR,9aR)-5-oxo-3-(3-(pyridin-3-yloxy)azetidine-1-carbonyl)decahydro-1H-cyclopropa[d]pyrrolo[1,2-a]azocin-6-yl)carbamoyl)benzo[b]thiophen-5-yl)methyl)phosphonic acid]
3 to 30 | 0.1 to 1 | O=C(N[C@H]1C[C@@H]2C[C@@H]2C[C@H]2CC[C@@H](C(=O)N3CC(Oc4ccccn4)C3)N2C1=O)c1cc2cc(CP(=O)(O)O)ccc2s1 [Example 351, ((2-(((3S,6S,7aS,8aR,9aR)-5-oxo-3-(3-(pyridin-2-yloxy)azetidine-1-carbonyl)decahydro-1H-cyclopropa[d]pyrrolo[1,2-a]azocin-6-yl)carbamoyl)benzo[b]thiophen-5-yl)methyl)phosphonic acid]
> 30 | 0.1 to 1 | O=C(N[C@H]1C[C@@H]2C[C@@H]2C[C@H]2CC[C@@H](C(=O)N3CC(Cc4ccncc4)C3)N2C1=O)c1cc2cc(CP(=O)(O)O)ccc2s1 [Example 352, ((2-(((3S,6S,7aS,8aR,9aR)-5-oxo-3-(3-(pyridin-4-ylmethyl)azetidine-1-carbonyl)decahydro-1H-cyclopropa[d]pyrrolo[1,2-a]azocin-6-yl)carbamoyl)benzo[b]thiophen-5-yl)methyl)phosphonic acid]
3 to 30 | 0.1 to 1 | CC(=O)N1CC(NC(=O)[C@@H]2CC[C@@H]3C[C@H]4C[C@H]4C[C@H](NC(=O)c4cc5cc(C(F)P(=O)(O)O)ccc5s4)C(=O)N32)C(F)(F)C1 (stereo partly drawn) [Example 358, ((2-(((3S,6S,7aS,8aR,9aR)-3-((1-acetyl-4,4-difluoropyrrolidin-3-yl)carbamoyl)-5-oxodecahydro-1H-cyclopropa[d]pyrrolo[1,2-a]azocin-6-yl)carbamoyl)benzo[b]thiophen-5-yl)fluoromethyl)phosphonic acid]
> 30 | 1 to 10 | O=C(N[C@H]1C[C@@H]2C[C@@H]2C[C@H]2CC[C@@H](C(=O)N3CC(Cc4cncnc4)C3)N2C1=O)c1cc2cc(CP(=O)(O)O)ccc2s1 [Example 364, ((2-(((3S,6S,7aS,8aR,9aR)-5-oxo-3-(3-(pyrimidin-5-ylmethyl)azetidine-1-carbonyl)decahydro-1H-cyclopropa[d]pyrrolo[1,2-a]azocin-6-yl)carbamoyl)benzo[b]thiophen-5-yl)methyl)phosphonic acid]
3 to 30 | 1 to 10 | O=C(N[C@H]1C[C@@H]2C[C@@H]2C[C@H]2CC[C@@H](C(=O)N3CC(C(O)c4ccccc4)C3)N2C1=O)c1cc2cc(CP(=O)(O)O)ccc2s1 (stereo partly drawn) [Example 365, ((2-(((3S,6S,7aS,8aR,9aR)-3-(3-(hydroxy(phenyl)methyl)azetidine-1-carbonyl)-5-oxodecahydro-1H-cyclopropa[d]pyrrolo[1,2-a]azocin-6-yl)carbamoyl)benzo[b]thiophen-5-yl)methyl)phosphonic acid]
3 to 30 | 0.1 to 1 | Cc1nc(N2C[C@H](NC(=O)[C@@H]3CC[C@@H]4C[C@H]5C[C@H]5C[C@H](NC(=O)c5cc6cc(C(F)P(=O)(O)O)ccc6s5)C(=O)N43)[C@@H](F)C2)n[nH]1 (stereo partly drawn) [Example 366, (fluoro(2-(((3S,6S,7aS,8aR,9aR)-3-(((3S,4S)-4-fluoro-1-(5-methyl-1H-1,2,4-triazol-3-yl)pyrrolidin-3-yl)carbamoyl)-5-oxodecahydro-1H-cyclopropa[d]pyrrolo[1,2-a]azocin-6-yl)carbamoyl)benzo[b]thiophen-5-yl)methyl)phosphonic acid]
